Measurements published in article PMC11739085, “A novel non-invasive murine model for rapidly testing drug activity via inhalation administration against Mycobacterium tuberculosis” (Frontiers in Pharmacology, 2025).
Where “and” joins values, the source holds several entries; their conditions need not be identical. Identical values can stand only once. Entries after “also recorded” stand apart in the source; their conditions may differ. Like-named read-outs stand apart in the source and are kept apart here.

Legend:
[1] = Pharmacokinetics in plasma via inhalation; conditions: for duration plasma concentration exceeded in vitro MIC against M. tuberculosis / peak concentration in plasma / AUC(0-t) / AUC(0-inf) / Tmax: mice
[2] = Pharmacokinetics in lung via inhalation; conditions: for duration lung concentration above in vitro MIC against M. tuberculosis: lung tissue, inhalation
[3] = design: method as in Grewal et al., 2018; Grosset et al., 1992; Lyons et al., 2013; conditions: mice, oral administration; ref Grewal et al., 2018; Grosset et al., 1992; Lyons et al., 2013; cited from earlier work
[4] = test system: autoluminescent M. tuberculosis H37Rv (AlRv); format: in vivo, Mycobacterium tuberculosis
[5] = test system: M. tuberculosis; conditions: stated without method or reference; cited from earlier work
[6] = test system: autoluminescent M. tuberculosis H37Rv (AlRv); format: in vivo, Mycobacterium tuberculosis; remark: listed apart in the source
[7] = test system: AlRv; test: Published inhalation administration method using a syringe-like device in mice infected with AlRv; format: in vivo, Mycobacterium tuberculosis; conditions: unpublished data
Excerpt: To date, four primary research reports, encompassing three inhalation administration models, have explored the detection of anti-TB drug efficacy through airway administration ([Garcia-Contreras et al., 2007]; [Garcia-Contreras et al., 2010]; [Gonzalez-Juarrero et al., 2012]; [Verma et al., 2013]). Among these studies, only two have employed murine models for their investigations. Supplementary Table S1 presents a comprehensive comparison of the advantages and disadvantages of each report relative to our study. Compared to these existing inhalation administration model, our innovative method achieves several improvements. Firstly, it is cost-effective and user-friendly, employing mice instead of larger animals. Secondly, it eliminates the need for anesthesia in mice during administration, simplifying the instrument operation. We also endeavored to utilize a published inhalation administration method using a syringe-like device in mice infected with AlRv. However, we encountered significant challenges in administering drugs daily due to the development of swollen throats in the mice ([Gonzalez-Juarrero et al., 2012]). […] Thirdly, the results obtained are relatively objective and repeatable, thereby minimizing the influence of human factor. Fourthly, the same treatment group, consisting of six mice, is administrated daily and simultaneously. […]

[8] = in vivo; conditions: mouse, inhaled or intranasal
[9] = in vivo; conditions: mouse, inhaled or intranasal; remark: listed apart in the source
[10] = inhalation, RIF 2, INH 0.5, EMB 10 mg/mL
[11] = single inhalation, RIF 2, INH 0.5, EMB 10 mg/mL
[12] = mouse, inhaled or intranasal, AUC0-t in plasma, inhalation, t = 4 h for INH and 24 h for RIF and EMB
[13] = mouse, inhaled or intranasal, AUC0-t, single inhalation 25 min, RIF 2, INH 0.5, EMB 10 mg/mL, t = 4 h for INH, 24 h for RIF and EMB
[14] = mouse, inhaled or intranasal, AUC0-∞ in plasma, inhalation
[15] = mouse, inhaled or intranasal, AUC0-∞, single inhalation 25 min, RIF 2, INH 0.5, EMB 10 mg/mL
[16] = mouse, inhaled or intranasal, time of peak concentration in plasma post-administration, single inhalation, RIF 2, INH 0.5, EMB 10 mg/mL, first sampling point 5 min
[17] = mice, RIF 2, INH 0.5, EMB 10 mg/mL
[18] = lung, mice, single inhalation, RIF 2, INH 0.5, EMB 10 mg/mL
[19] = mouse, lung, inhaled or intranasal, AUC0-t, mice, single inhalation 25 min, RIF 2, INH 0.5, EMB 10 mg/mL
[20] = mouse, lung, inhaled or intranasal, Tmax, mice, single inhalation 25 min, RIF 2, INH 0.5, EMB 10 mg/mL
[21] = mouse, lung, inhaled or intranasal, time of peak concentration in lung post-administration, mice, single inhalation, RIF 2, INH 0.5, EMB 10 mg/mL
[22] = […], RIF 2, INH 2, EMB 10 mg/mL, lungs D18

CC[C@@H](CO)NCCN[C@@H](CC)CO [EMB, ethambutol]
duration plasma concentration exceeded in vitro MIC against M. tuberculosis [1, 10]: ~14 h | peak concentration in plasma [1, 11]: 28.64 ± 16.80 µg/mL and 28.64 ± 16.8 µg/mL | half-life ([1]; mouse, inhaled or intranasal): 170 min | AUC(0-t) [1, 12]: 103000 ng·h/mL | AUC(0-t) [1, 13]: 103000 ng·h/mL | AUC(0-inf) [1, 14]: 103000 ng·h/mL | AUC(0-inf) [1, 15]: 103000 ng·h/mL | Tmax ([1]; mouse, inhaled or intranasal, Tmax, single inhalation 25 min, RIF 2, INH 0.5, EMB 10 mg/mL): 4.8 min | Tmax [1, 16]: ≤ 5 min | duration lung concentration above in vitro MIC against M. tuberculosis [2, 17]: ~10 h | peak concentration in lung [2, 18]: 10.94 ± 1.63 µg/g | half-life ([2]; mouse, lung, inhaled or intranasal): 274 min | AUC(0-t) [2, 19]: 47300 ng·h/mL | AUC(0-inf) ([2]; mouse, lung, inhaled or intranasal, AUC0-∞, mice, single inhalation 25 min, RIF 2, INH 0.5, EMB 10 mg/mL): 48700 ng·h/mL | Tmax [2, 20]: 4.8 min | Tmax [2, 21]: ≤ 5 min | time of highest plasma concentration post-administration [3]: 1.33 h | live RLUs compared with solvent group ([4]; in vivo): significantly lower | log10CFUs/lung difference to solvent group ([4]; in vivo): exceeding 1.5 log10CFUs/lung | lowest inhaled concentration showing anti-M. tuberculosis activity in vivo ([4]; in vivo): 0.625 mg/mL | lung CFUs compared with BT group ([4]; in vivo): nearly identical | lung CFUs compared with solvent control ([4]; in vivo): significantly reduced | lung RLUs compared with BT group ([4]; in vivo): equivalent | lung RLUs compared with solvent group ([4]; in vivo): less significant differences | in vitro minimum inhibitory concentration (MIC) [5]: 2.00 µg/mL | lung CFUs compared with BT group [6, 22]: almost similar | lung RLUs compared with BT group [6, 22]: nearly identical

NNC(=O)c1ccncc1 [INH, isoniazid]
RLUs compared with untreated control and the same mice the day before administration [7]: reduced RLUs | duration plasma concentration exceeded in vitro MIC against M. tuberculosis [1, 10]: ~3 h | peak concentration in plasma [1, 11]: 2.66 ± 0.29 µg/mL | AUC(0-t) [1, 12]: 1570 ng·h/mL | AUC(0-t) [1, 13]: 1570 ng·h/mL | AUC(0-inf) [1, 14]: 1790 ng·h/mL | AUC(0-inf) [1, 15]: 1790 ng·h/mL | Tmax [1, 16]: ≤ 5 min | duration lung concentration above in vitro MIC against M. tuberculosis [2, 17]: ~0.5 h | concentration in the lungs 30 min post-administration ([2]; lung, mice, inhalation 0.5 mg/mL, 30 min post-administration): nearly undetectable; also recorded: near-zero | peak concentration in lung [2, 18]: 2.52 ± 0.81 µg/g | AUC(0-t) ([2]; mouse, lung, inhaled or intranasal, 0.5 mg/mL, AUC0-t in the lungs, mice, inhalation 0.5 mg/mL): 340 ng·h/mL | AUC(0-t) [2, 19]: 337 ng·h/mL | Tmax [2, 20]: 15 min | Tmax [2, 21]: ≤ 15 min | time of highest plasma concentration post-administration [3]: 0.25 h | colonies on plates of lung suspension ([4]; […], only a fraction of the lung suspension plated): no colonies were observed | log10CFUs/lung difference to solvent group ([4]; in vivo): exceeding 1.5 log10CFUs/lung | log10RLUs/lung difference to solvent group ([4]; in vivo): exceeding 1.5 log10RLUs/lung | lowest inhaled concentration showing anti-M. tuberculosis activity in vivo ([4]; in vivo): 0.5 mg/mL | lung CFUs compared with BT group ([4]; in vivo): lower | lung RLUs compared with BT group ([4]; in vivo): comparable | lung RLUs compared with solvent group ([4]; in vivo): similar | in vitro minimum inhibitory concentration (MIC) [5]: 0.13 µg/mL | Tmax [8]: 4.8 min | lung CFUs compared with BT group [6, 22]: lower | lung RLUs compared with BT group [6, 22]: slightly lower

CO[C@H]1/C=C/O[C@@]2(C)Oc3c(C)c(O)c4c(O)c(c(/C=N/N5CCN(C)CC5)c(O)c4c3C2=O)NC(=O)/C(C)=C\C=C\[C@H](C)[C@H](O)[C@@H](C)[C@@H](O)[C@@H](C)[C@H](OC(C)=O)[C@@H]1C [RIF, rifampicin]
duration plasma concentration exceeded in vitro MIC against M. tuberculosis [1, 10]: approximately 24 h | duration lung concentration above in vitro MIC against M. tuberculosis [2, 17]: approximately 24 h | bactericidal activity by lung suspension RLU and CFU ([4]; in vivo): failed to demonstrate bactericidal activity | log10CFUs/lung difference to solvent group ([4]; in vivo): exceeding 1.5 log10CFUs/lung | log10RLUs/lung difference to solvent group ([4]; in vivo): exceeding 1.5 log10RLUs/lung | lowest inhaled concentration showing anti-M. tuberculosis activity in vivo ([4]; in vivo): 0.5 mg/mL | lung CFUs compared with solvent group ([4]; in vivo): slightly significantly lower; also recorded: approximately comparable | lung RLUs compared with solvent group ([4]; in vivo): comparable | Tmax ([9]; Tmax): 4.8 min | Tmax ([9]; time of peak concentration in lung post-administration): 5 min | in vitro minimum inhibitory concentration (MIC) [5]: 0.06 µg/mL | AUC(0-t) ([8]; AUC0-t in plasma): 19000 ng·h/mL | AUC(0-inf) ([8]; AUC0-∞ in plasma): 21000 ng·h/mL | Tmax ([8]; Tmax): 4.8 min | Tmax ([8]; time of peak concentration in plasma post-administration): 5 min | lung CFUs compared with BT group ([6]; in vivo): higher
